Measurements from PMC8765437, “GSK3640254 Is a Novel HIV-1 Maturation Inhibitor with an Optimized Virology Profile” (Antimicrobial Agents and Chemotherapy, 2022).
Like-named read-outs stand apart in the source and are kept apart here.

System: NLRepRlucP373S viruses containing Gag SDMs or gag/pr genes from clinical isolates
Experiment: Multiple-cycle replication assay, NLRepRluc reporter viruses in MT-2 cells, luciferase endpoint
Format: cell-based, HIV-1
Text: Multiple-cycle assays using recombinant viruses or clinical isolates were used to assess MI antiviral activity as described previously ([10]). pNLRepRlucP373S (the P373S change is in the Gag gene and converts an outlier polymorphism in the NL4-3 gene to the prevalent amino acid in the population) plasmids containing SDMs in Gag or gag/pr regions from clinical isolates were transfected into HEK 293T cells, and the supernatant containing recombinant virus was harvested after 4 to 5 days. Virus was used to infect MT-2 cells in the presence of a 3-fold serially diluted compound at a final dimethyl sulfoxide (DMSO) concentration of 1%. The inocula of the reporter viruses were determined based on the luciferase activity detected on day 4 postinfection. The MOI (ratio of infectious virions to target cells) of reporter-free laboratory strains and clinical isolates was 0.005, as derived from a tissue culture infectious dose study. Clinical isolates or reporter-free viruses were examined in the reporter CEM-NKR-CCR5-Luc cells or PBMCs at MOIs ranging from 0.005 to 0.01. Each infection started with a drug-free preincubation of the cell-virus mixtures, performed at 37°C and 5% CO2 for either 1 h at 2 times the final cell density (reporter viruses) or 1 h (reporter-free laboratory strains) or 3 h (clinical isolates) using cell pellets in 0.5 mL of medium. After preincubation, cell-virus mixtures were added to compound-containing 96-well plates for a final cell density of either 10,000 (MT-2 cells for reporter viruses), 20,000 (MT-2 and PM1 cells for reporter-free laboratory strains), 200,000 (PBMCs for clinical isolates), or 500,000 (CEM-NKR-CCR5-Luc for reporter-free laboratory strains) cells per well. The CEM-NKR-CCR5-Luc cell assay was performed in the presence of Polybrene (10 μg/mL). Virus growth was determined on days 4 to 5 postinfection for reporter variants or days 5 to 11 for the other viruses. The reporter viruses were detected by a luciferase assay according to manufacturer protocols (Brite-Glo luciferase kit [Promega] for CEM-NKR-CCR5-Luc cells and Dual-Luciferase Reporter 1000 assay system [Promega] for the other cells), and luminescence was detected on a Wallac Trilux. The growth of clinical isolates in PBMCs was quantitated by reverse transcriptase activity in a 96-well scintillation proximity assay (SPA). Twenty microliters of culture supernatants was mixed with 40 μL of reaction cocktail (62.5 mM Tris-HCl [pH 7.8], 100 mM KCl, 0.0625% NP-40, 2.5 mM dithiothreitol [DTT], 6.25 mM MgCl2, 1 mM EGTA, 6.25 μg/mL of poly rA, 2.5 μg/mL of streptavidin SPA beads prebound with biotinylated-dT12-18, and 1 μCi of [^3H]TTP). Mixtures were incubated at 37°C for ∼3 h and quenched with 100 μl of 0.25 M EDTA per well. Luminescence was detected on a Wallac Trilux programmed for tritium counting with SPA beads in opaque plates. The growth of the reporter-free laboratory M-tropic strains and clinical isolates was monitored by a p24 enzyme-linked immunosorbent assay (ELISA; PerkinElmer Life Sciences, Waltham, MA) performed on culture supernatants. […] A 1:1,000 dilution of cell supernatant in PBS was generally observed to fall in the dynamic range of the endpoint signal.
Maximal percent inhibition values were calculated as MPI = 100 – (mean signals at the 2 highest concentrations of compound/mean signal of 2 no-drug control wells) × 100.

[1] = Human immunodeficiency virus 1, MT2, V370A, 10% FBS
[2] = Human immunodeficiency virus 1, MT2, Wild type, 10% FBS

C=C(C)[C@@H]1CC[C@]2(NCCN3CCS(=O)(=O)CC3)CC[C@]3(C)[C@H](CC[C@@H]4[C@@]5(C)CC=C(C6=CC[C@@](CF)(C(=O)O)CC6)C(C)(C)[C@@H]5CC[C@]43C)[C@@H]12 [GSK’254]
MPI (A366V-containing viruses): −86 to 400% | EC50 (Human immunodeficiency virus 1, MT2, 92BR018-genotyped NLRepRlucP373S virus): 1 nM | EC50 (Human immunodeficiency virus 1, MT2, 93BR008-genotyped NLRepRlucP373S virus): 2 nM | EC50 (Human immunodeficiency virus 1, MT2, R361K/V362I/L363M): 3 nM | EC50 (Human immunodeficiency virus 1, MT2, Table S1, SDM R361K/V362I/L363M): 3 nM | EC50 (Human immunodeficiency virus 1, MT2, Table S1, SDM S368R/V370A): 1 nM | EC50 (Human immunodeficiency virus 1, MT2, Table S1, SDM V362I/V370A): 3 nM | EC50 (Human immunodeficiency virus 1, MT2, Table S1, SDM V370A): 2 nM | EC50 (Human immunodeficiency virus 1, MT2, Table S1, SDM V370A/ΔT371): 3 nM | EC50 (Human immunodeficiency virus 1, MT2, Table S1, SDM ΔV370): 3 nM | EC50 (Human immunodeficiency virus 1, MT2, Table S1, subtype B SDM Wild-type (V, QVT)): 3 nM | EC50 (Human immunodeficiency virus 1, MT2, V362I/V370A): 3 nM | EC50 [1]: 1.5 nM | EC90 [1]: 3 nM | EC50 [2]: 1.4 nM | EC90 [2]: 3.6 nM | EC50 (Human immunodeficiency virus 1, MT2, read-out: EC50 (range), Subtype B gag/pr viruses, n=24): 0.5 to 7 nM | EC50 (Human immunodeficiency virus 1, MT2, read-out: EC50 (range), Subtype C gag/pr viruses, n=11): 1 to 2 nM | EC50 (Human immunodeficiency virus 1, MT2, read-out: EC50 (range), V362I only viruses, n=9): 1 to 7 nM | EC50 (Human immunodeficiency virus 1, MT2, read-out: EC50 (range), Wild-type subtype B, n=5): 0.5 to 2 nM | EC50 (Human immunodeficiency virus 1, MT2, read-out: Mean ± SD EC50, A366V-containing viruses (A366V, V362I/A366V, V362I/A366V/V370M, A366V/V370M)): > 3000 nM | EC50 (Human immunodeficiency virus 1, MT2, read-out: Mean ± SD EC50, SDM A326T/V362I/V370A): 26 ± 70 nM | EC50 (Human immunodeficiency virus 1, MT2, read-out: Mean ± SD EC50, SDM A364V): 274 ± 505 nM | EC50 (Human immunodeficiency virus 1, MT2, read-out: Mean ± SD EC50, SDM R361K/V362I/L363M): 3 ± 1 nM | EC50 (Human immunodeficiency virus 1, MT2, read-out: Mean ± SD EC50, SDM T332S/V362I/prR41G): 7 ± 4 nM | EC50 (Human immunodeficiency virus 1, MT2, read-out: Mean ± SD EC50, SDM V362I/V370A): 3 ± 1 nM | EC50 (Human immunodeficiency virus 1, MT2, read-out: Mean ± SD EC50, SDM V370A): 2 ± 1 nM | EC50 (Human immunodeficiency virus 1, MT2, read-out: Mean ± SD EC50, SDM Wild type): 3 ± 2 nM | EC50 (Human immunodeficiency virus 1, MT2, read-out: Mean ± SD EC50, SDM ΔV370): 3 ± 1 nM | EC50 (Human immunodeficiency virus 1, MT2, read-out: Mean ± SD EC50, Subtype B gag/pr viruses, n=24): 1.9 ± 1.5 nM | EC50 (Human immunodeficiency virus 1, MT2, read-out: Mean ± SD EC50, Subtype C gag/pr viruses, n=11): 1.2 ± 0.4 nM | EC50 (Human immunodeficiency virus 1, MT2, read-out: Mean ± SD EC50, V362I only viruses, n=9): 2.7 ± 2 nM | EC50 (Human immunodeficiency virus 1, MT2, read-out: Mean ± SD EC50, V362I/ΔV370 virus, n=1): 3 nM | EC50 (Human immunodeficiency virus 1, MT2, read-out: Mean ± SD EC50, Wild-type subtype B (V362, Q369, V370, T371), n=5): 1.1 ± 0.5 nM | EC50 (Human immunodeficiency virus 1, MT2, read-out: Median EC50, Subtype B gag/pr viruses, n=24): 1 nM | EC50 (Human immunodeficiency virus 1, MT2, read-out: Median EC50, Subtype C gag/pr viruses, n=11): 1 nM | EC50 (Human immunodeficiency virus 1, MT2, read-out: Median EC50, V362I only viruses, n=9): 2 nM | EC50 (Human immunodeficiency virus 1, MT2, read-out: Median EC50, Wild-type subtype B, n=5): 1 nM | EC90 (Human immunodeficiency virus 1, MT2, read-out: PBA EC90, Table S1, SDM A326T/V362I/V370A): 117 nM | EC90 (Human immunodeficiency virus 1, MT2, read-out: PBA EC90, Table S1, SDM R361K/V362I/L363M): 50 nM | EC90 (Human immunodeficiency virus 1, MT2, read-out: PBA EC90, Table S1, SDM S368R/V370A): 9 nM | EC90 (Human immunodeficiency virus 1, MT2, read-out: PBA EC90, Table S1, SDM T332S/V362I/PrR41G): 77 nM | EC90 (Human immunodeficiency virus 1, MT2, read-out: PBA EC90, Table S1, SDM V362I/V370A): 18 nM | EC90 (Human immunodeficiency virus 1, MT2, read-out: PBA EC90, Table S1, SDM V370A): 21 nM | EC90 (Human immunodeficiency virus 1, MT2, read-out: PBA EC90, Table S1, SDM V370A/ΔT371): 40 nM | EC90 (Human immunodeficiency virus 1, MT2, read-out: PBA EC90, Table S1, SDM ΔV370): 57 nM | EC90 (Human immunodeficiency virus 1, MT2, read-out: PBA EC90, Table S1, subtype B SDM Wild-type (V, QVT)): 24 nM | EC90 (Human immunodeficiency virus 1, MT2, read-out: PBA EC90, subtype B gag/pr 4NRR (Wild-type)): 25 nM | EC90 (Human immunodeficiency virus 1, MT2, read-out: PBA EC90, subtype B gag/pr 28-MDR (Wild-type)): 37 nM | EC90 (Human immunodeficiency virus 1, MT2, read-out: PBA EC90, subtype B gag/pr 92BR014 (V370M)): 11 nM | EC90 (Human immunodeficiency virus 1, MT2, read-out: PBA EC90, subtype B gag/pr 92BR018 (V, QAΔ)): 26 nM | EC90 (Human immunodeficiency virus 1, MT2, read-out: PBA EC90, subtype B gag/pr 92TH014 (V362I)): 12 nM | EC90 (Human immunodeficiency virus 1, MT2, read-out: PBA EC90, subtype B gag/pr 92TH026 (V362I)): 32 nM | EC90 (Human immunodeficiency virus 1, MT2, read-out: PBA EC90, subtype B gag/pr 92US072 (V362I)): 21 nM | EC90 (Human immunodeficiency virus 1, MT2, read-out: PBA EC90, subtype B gag/pr 92US729 (Wild-type)): 13 nM | EC90 (Human immunodeficiency virus 1, MT2, read-out: PBA EC90, subtype B gag/pr 93BR008 (V362I)): 30 nM | EC90 (Human immunodeficiency virus 1, MT2, read-out: PBA EC90, subtype B gag/pr 93BR017 (V, QAΔ)): 20 nM | EC90 (Human immunodeficiency virus 1, MT2, read-out: PBA EC90, subtype B gag/pr 93BR022 (V, QAΔ)): 28 nM | EC90 (Human immunodeficiency virus 1, MT2, read-out: PBA EC90, subtype B gag/pr 93BR024 (V362I)): 180 nM | EC90 (Human immunodeficiency virus 1, MT2, read-out: PBA EC90, subtype B gag/pr 93TH0647 (V362I)): 23 nM | EC90 (Human immunodeficiency virus 1, MT2, read-out: PBA EC90, subtype B gag/pr 93US141 (V362I)): 37 nM
